Measured values published in patent US9938273B2 (Plexxikon Inc., priority 2015, dated 2018).
pIC50: −log10 of the molar value.

What was measured:
FLT3-D835Y = target: T1, FLT3-D835Y (Homo sapiens, UniProt P36888, D835Y); assay: AlphaScreen kinase assay with recombinant enzyme, FLT3-D835Y; type: biochemical; conditions: 8pt, GMean
T1 construct: purchased Invitrogen PV3967
T1 sequence (P36888 27-993 D835Y): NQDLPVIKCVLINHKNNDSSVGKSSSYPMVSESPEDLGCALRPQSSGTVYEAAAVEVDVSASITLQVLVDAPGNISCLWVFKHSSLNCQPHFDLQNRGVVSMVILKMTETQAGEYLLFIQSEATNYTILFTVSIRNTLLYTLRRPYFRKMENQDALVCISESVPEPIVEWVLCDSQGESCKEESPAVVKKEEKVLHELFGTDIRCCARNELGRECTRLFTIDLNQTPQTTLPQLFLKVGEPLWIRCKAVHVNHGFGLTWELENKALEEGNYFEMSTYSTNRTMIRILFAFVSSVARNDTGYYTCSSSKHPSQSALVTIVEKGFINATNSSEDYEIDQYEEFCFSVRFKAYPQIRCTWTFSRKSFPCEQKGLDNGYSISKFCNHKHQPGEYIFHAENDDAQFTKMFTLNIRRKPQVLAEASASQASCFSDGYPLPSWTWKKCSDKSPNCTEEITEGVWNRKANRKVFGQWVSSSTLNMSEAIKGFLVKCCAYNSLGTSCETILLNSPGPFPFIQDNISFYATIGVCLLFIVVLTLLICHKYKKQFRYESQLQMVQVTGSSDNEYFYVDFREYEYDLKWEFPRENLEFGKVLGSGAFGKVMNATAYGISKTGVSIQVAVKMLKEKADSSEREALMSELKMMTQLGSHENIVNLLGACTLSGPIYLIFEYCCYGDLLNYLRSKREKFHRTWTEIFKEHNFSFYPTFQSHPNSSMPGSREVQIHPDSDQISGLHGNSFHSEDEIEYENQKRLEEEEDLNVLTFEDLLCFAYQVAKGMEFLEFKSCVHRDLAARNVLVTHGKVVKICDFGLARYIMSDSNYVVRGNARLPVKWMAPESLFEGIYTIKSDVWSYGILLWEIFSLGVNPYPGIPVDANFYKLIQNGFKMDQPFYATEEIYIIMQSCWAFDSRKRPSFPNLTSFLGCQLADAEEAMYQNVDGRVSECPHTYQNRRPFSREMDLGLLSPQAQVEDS
How it was run: (§1)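 Compounds in DMSO added to enzyme plus biotin-poly(Glu4-Tyr) (30 nM) in assay buffer, then ATP added. Streptavidin donor beads added (20 min, RT), then PY20 acceptor beads (60 min, RT), both at 10 μg/mL final in stop/detection buffer. IC50 conditions: 10 μM FLT3-D835Y/ITD, 100 μM c-KIT.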

c-KIT = target: T2, c-KIT (Homo sapiens, UniProt P10721); assay: AlphaScreen kinase assay with recombinant enzyme, c-KIT; type: biochemical; conditions: 100ATP, 8pt, GMean
T2 construct: purchased Millipore 14-559K
T2 sequence (P10721 26-976): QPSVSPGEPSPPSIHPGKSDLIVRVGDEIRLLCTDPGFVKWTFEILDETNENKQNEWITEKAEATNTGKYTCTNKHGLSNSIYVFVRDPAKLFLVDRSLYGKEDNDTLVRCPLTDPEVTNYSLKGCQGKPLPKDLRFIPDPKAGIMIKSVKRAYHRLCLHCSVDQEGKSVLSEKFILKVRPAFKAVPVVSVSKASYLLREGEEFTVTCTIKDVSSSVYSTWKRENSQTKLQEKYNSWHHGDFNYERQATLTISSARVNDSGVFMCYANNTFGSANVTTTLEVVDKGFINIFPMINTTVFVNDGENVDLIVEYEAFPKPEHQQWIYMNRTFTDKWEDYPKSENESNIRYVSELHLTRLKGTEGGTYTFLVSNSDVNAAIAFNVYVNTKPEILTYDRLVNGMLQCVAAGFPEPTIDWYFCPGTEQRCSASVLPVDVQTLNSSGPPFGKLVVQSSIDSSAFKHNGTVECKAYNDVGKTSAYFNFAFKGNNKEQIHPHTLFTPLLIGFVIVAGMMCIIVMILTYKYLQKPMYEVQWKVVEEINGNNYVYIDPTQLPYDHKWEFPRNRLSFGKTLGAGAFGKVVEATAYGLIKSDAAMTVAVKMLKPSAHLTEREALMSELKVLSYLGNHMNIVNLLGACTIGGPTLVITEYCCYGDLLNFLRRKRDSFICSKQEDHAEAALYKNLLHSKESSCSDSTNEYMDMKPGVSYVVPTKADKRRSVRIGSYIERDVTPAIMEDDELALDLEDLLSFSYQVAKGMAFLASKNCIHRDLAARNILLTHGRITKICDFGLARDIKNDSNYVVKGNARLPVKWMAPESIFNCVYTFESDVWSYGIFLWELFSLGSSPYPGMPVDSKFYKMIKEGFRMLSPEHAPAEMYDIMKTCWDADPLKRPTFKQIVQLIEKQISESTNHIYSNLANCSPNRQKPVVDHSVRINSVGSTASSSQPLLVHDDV
How it was run: as §1

SMILES: c1ccc(-c2cc3cc(-c4ccc5[nH]nc(NC6CCNC6)c5c4)cnc3[nH]2)cc1 (stereo not shown) [Compound P-0059, 5-(2-phenyl-1H-pyrrolo[2,3-b]pyridin-5-yl)-N-pyrrolidin-3-yl-1H-indazol-3-amine]
- pIC50 (FLT3-D835Y): 5.00 to 10.00
- pIC50 (c-KIT): 5.00 to 10.00

SMILES: NC1CCCN(C(=O)c2cccc(-c3cnc4[nH]c(-c5ccccc5)cc4c3)n2)C1 (stereo not shown) [Compound P-0067, (3-amino-1-piperidyl)-[6-(2-phenyl-1H-pyrrolo[2,3-b]pyridin-5-yl)-2-pyridyl]methanone]
- pIC50 (FLT3-D835Y): 5.00 to 10.00
- pIC50 (c-KIT): 5.00 to 10.00

SMILES: O=C(c1cccc(-c2cnc3[nH]c(-c4ccccc4)cc3c2)n1)N1CCC(O)C1 (stereo not shown) [Compound P-0068, (3-hydroxypyrrolidin-1-yl)-[6-(2-phenyl-1H-pyrrolo[2,3-b]pyridin-5-yl)-2-pyridyl]methanone]
- pIC50 (FLT3-D835Y): 5.00 to 10.00
- pIC50 (c-KIT): 5.00 to 10.00

SMILES: O=C(c1cccc(-c2cnc3[nH]c(-c4ccccc4)cc3c2)n1)N1CCCC(O)C1 (stereo not shown) [Compound P-0069, (3-hydroxy-1-piperidyl)-[6-(2-phenyl-1H-pyrrolo[2,3-b]pyridin-5-yl)-2-pyridyl]methanone]
- pIC50 (FLT3-D835Y): 5.00 to 10.00
- pIC50 (c-KIT): 4.30 to 5.00

SMILES: NC1CCN(C(=O)c2n[nH]c3ccc(-c4cnc5[nH]c(C6=CCN(C(=O)C7CC7)C6)cc5c4)cc23)CC1 [Compound P-0074, (4-amino-1-piperidyl)-[5-[2-[1-(cyclopropanecarbonyl)-2,5-dihydropyrrol-3-yl]-1H-pyrrolo[2,3-b]pyridin-5-yl]-1H-indazol-3-yl]methanone]
- pIC50 (FLT3-D835Y): 5.00 to 10.00
- pIC50 (c-KIT): 4.30 to 5.00

SMILES: CNC1CCN(Cc2cccc(-c3cnc4[nH]c(-c5ccccc5)cc4c3)n2)C1 (stereo not shown) [Compound P-0087, N-methyl-1-[[6-(2-phenyl-1H-pyrrolo[2,3-b]pyridin-5-yl)-2-pyridyl]methyl]pyrrolidin-3-amine]
- pIC50 (FLT3-D835Y): 5.00 to 10.00
- pIC50 (c-KIT): 5.00 to 10.00

SMILES: O=C(c1cccc(-c2cnc3[nH]c(-c4ccccc4)cc3c2)n1)N1CCC(F)(F)CC1 [Compound P-0089, (4,4-difluoro-1-piperidyl)-[6-(2-phenyl-1H-pyrrolo[2,3-b]pyridin-5-yl)-2-pyridyl]methanone]
- pIC50 (FLT3-D835Y): 4.00 to 4.30
- pIC50 (c-KIT): 4.00 to 4.30

SMILES: COC(=O)C1(C)CCN(C(=O)c2cccc(-c3cnc4[nH]c(-c5ccccc5)cc4c3)n2)CC1 [Compound P-0092, methyl 4-methyl-1-[6-(2-phenyl-1H-pyrrolo[2,3-b]pyridin-5-yl)pyridine-2-carbonyl]piperidine-4-carboxylate]
- pIC50 (FLT3-D835Y): 5.00 to 10.00
- pIC50 (c-KIT): 4.00 to 4.30
